According to ChEMBL document CHEMBL4257535, “Design, synthesis and biological evaluation of AKT inhibitors bearing a piperidin-4-yl appendant” (Medchemcomm, 2018):
Active and inactive are the calls of the source. No cut-off for these calls is given here.

Columns and labels:
[1] = biological target: T1, RAC-alpha serine/threonine-protein kinase (Homo sapiens, UniProt P31749); assay: Inhibition of AKT1 (unknown origin) at 1 uM using biotin-labelled STK as substrate measured after 45 mins by HTRF method relative to control
T1 sequence (P31749 whole entry): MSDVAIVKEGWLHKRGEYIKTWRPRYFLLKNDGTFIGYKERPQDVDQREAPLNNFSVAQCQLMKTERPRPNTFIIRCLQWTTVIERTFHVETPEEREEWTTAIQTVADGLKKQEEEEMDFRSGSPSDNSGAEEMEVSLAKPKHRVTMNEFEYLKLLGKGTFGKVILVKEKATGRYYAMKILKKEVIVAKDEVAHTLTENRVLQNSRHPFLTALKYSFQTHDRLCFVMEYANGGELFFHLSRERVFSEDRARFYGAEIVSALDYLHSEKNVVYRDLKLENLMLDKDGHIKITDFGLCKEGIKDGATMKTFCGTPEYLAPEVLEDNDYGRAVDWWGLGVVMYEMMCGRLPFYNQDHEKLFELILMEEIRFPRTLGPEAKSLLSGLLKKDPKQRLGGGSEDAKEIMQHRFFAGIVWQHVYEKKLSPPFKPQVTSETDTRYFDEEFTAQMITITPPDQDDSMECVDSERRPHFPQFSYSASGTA

PC-3 = assay: Antiproliferative activity against human PC3 cells after 72 hrs by MTT assay; type: functional, cell-based; settings: PC-3, 72 h
[2] = biological target: T1, RAC-alpha serine/threonine-protein kinase; assay: Inhibition of AKT1 (unknown origin) at 0.1 uM using biotin-labelled STK as substrate measured after 45 mins by HTRF method relative to control
in vitro [3] = assay: in vitro; set-up: dose or concentration left out as unconfirmed; settings: human, liver microsomes
Description: Intrinsic clearance in human liver microsomes at 10 mM preincubated for 10 mins followed by NADPH addition and measured after 5 to 60 mins by LC-MS analysis

in vitro [4] = assay: in vitro; set-up: dose or concentration left out as unconfirmed; settings: human, liver microsomes; remark: listed apart in the source
Description: Half life in human liver microsomes at 10 mM preincubated for 10 mins followed by NADPH addition by LC-MS analysis

[5] = biological target: T1, RAC-alpha serine/threonine-protein kinase; assay: Inhibition of AKT1 (unknown origin) at 50 nM using biotin-labelled STK as substrate measured after 45 mins by HTRF method relative to control
[6] = biological target: T1, RAC-alpha serine/threonine-protein kinase; assay: Inhibition of AKT1 (unknown origin) using biotin-labelled STK as substrate measured after 45 mins by HTRF method
[7] = biological target: T1, RAC-alpha serine/threonine-protein kinase; assay: Inhibition of AKT in human PC3 cells assessed as reduction in GSK3beta phosphorylation at 1 to 10 uM after 4 hrs by Western blot analysis; type: cell-based
in vitro [8] = assay: in vitro; set-up: dose or concentration left out as unconfirmed; settings: human, liver microsomes; remark: listed apart in the source
Description: Stability in human liver microsomes assessed as parent compound remaining at 10 mM preincubated for 10 mins followed by NADPH addition and measured after 60 mins by LC-MS analysis

| Compound | inhibition [1] | IC50 (PC-3) | inhibition [2] | other results |
| --- | --- | --- | --- | --- |
| O=C(N1CCN(c2ncnc3ccccc23)CC1)C1(c2ccc(Br)cc2)CCNCC1 | 6.1% | 22.8 µM | – | – |
| O=C(N1CCN(c2ncnc3[nH]ncc23)CC1)C1(c2ccc(F)cc2)CCNCC1 | 7.4% | > 40 µM | – | – |
| O=C(N1CCN(c2ncnc3[nH]nc(Br)c23)CC1)C1(c2ccc(F)cc2)CCNCC1 | 93.2% | 36.6 µM | 53.3% | – |
| O=C(N1CCN(c2ncnc3ccccc23)CC1)C1(c2ccc(Cl)cc2)CCNCC1 | 34.2% | > 40 µM | – | – |
| O=C(O)Cc1ccccc1Nc1c(Cl)cccc1Cl [DICLOFENAC] | – | – | – | CLint scaled (in vitro [3]): 123 mL/min/kg; microsomal CLint (in vitro [3]): 136 µL/min/mg; half-life (in vitro [4]): 10.2 min |
| O=C(Cc1ccc(Cl)c(Cl)c1)N1CCN(c2ncnc3[nH]cc(Br)c23)CC1 | – | 31.5 µM | – | inhibition [5]: 65.5% |
| O=C(N1CCN(c2ncnc3[nH]nc(Br)c23)CC1)C1(c2ccc(Cl)c(Cl)c2)CCNCC1 | 93.8% | 10.3 µM | 90.9% | IC50 [6]: 0.0305 µM |
| O=C(N1CCN(c2ncnc3[nH]ncc23)CC1)C1(c2ccc(Cl)c(Cl)c2)CCNCC1 | 52.1% | > 40 µM | – | – |
| O=C(N1CCN(c2ncnc3[nH]nc(Br)c23)CC1)C1(c2ccc(Br)cc2)CCNCC1 | 96.5% | 15 µM | 90.6% | IC50 [6]: 0.0519 µM |
| O=C(N1CCN(c2ncnc3[nH]cnc23)CC1)C1(c2ccc(Br)cc2)CCNCC1 | 68% | > 40 µM | – | – |
| O=C(N1CCN(c2ncnc3ccccc23)CC1)C1(c2ccc(F)cc2)CCNCC1 | 23% | 13.7 µM | – | – |
| O=C(N1CCN(c2ncnc3ccccc23)CC1)C1(c2ccc(Cl)c(Cl)c2)CCNCC1 | 21.9% | 14 µM | – | – |
| O=C(N1CCN(c2ncnc3[nH]cnc23)CC1)C1(c2ccc(Cl)cc2)CCNCC1 | 45.6% | > 40 µM | – | – |
| O=C(N1CCN(c2ncnc3[nH]nc(Cl)c23)CC1)C1(c2ccc(Br)cc2)CCNCC1 | 95.4% | 32.4 µM | 84.5% | IC50 [6]: 0.0329 µM |
| O=C(N1CCN(c2ncnc3[nH]cnc23)CC1)C1(c2ccc(Cl)c(Cl)c2)CCNCC1 | 51.4% | 33.9 µM | – | – |
| O=C(N1CCN(c2ncnc3[nH]nc(Cl)c23)CC1)C1(c2ccc(F)cc2)CCNCC1 | 86.7% | 37.4 µM | 60.9% | – |
| O=C(N1CCN(c2ncnc3[nH]cnc23)CC1)C1(c2ccc(F)cc2)CCNCC1 | 94.2% | > 40 µM | – | – |
| O=C(N1CCN(c2ncnc3[nH]ncc23)CC1)C1(c2ccc(Cl)cc2)CCNCC1 | 38.7% | > 40 µM | – | – |
| O=C(N1CCN(c2ncnc3[nH]ncc23)CC1)C1(c2ccc(Br)cc2)CCNCC1 | 11.6% | > 40 µM | – | – |
| CCn1c(-c2nonc2N)nc2c(C#CC(C)(C)O)ncc(OC[C@H]3CCCNC3)c21 [GSK-690693] | 99.5% | 14.1 µM | 98.5% | inhibition [7]: Active |
| O=C(N1CCN(c2ncnc3[nH]nc(Br)c23)CC1)C1(c2ccc(Cl)cc2)CCNCC1 | 96.7% | 9.8 µM | 86.7% | IC50 [6]: 0.0269 µM |
| C[C@]12CC[C@H]3[C@@H](CCC4=CC(=O)CC[C@@]43C)[C@@H]1CC[C@@H]2O [TESTOSTERONE] | – | – | – | CLint scaled (in vitro [3]): 74 mL/min/kg; microsomal CLint (in vitro [3]): 82.2 µL/min/mg; half-life (in vitro [4]): 16.9 min; remaining at 1 h (in vitro [8]): 8.1% |
| O=C(Cc1ccc(Cl)cc1)N1CCN(c2ncnc3[nH]cc(Br)c23)CC1 | – | 21.1 µM | – | inhibition [5]: 69.7% |
| O=C(N1CCN(c2ncnc3[nH]nc(Cl)c23)CC1)C1(c2ccc(Cl)cc2)CCNCC1 | 91.9% | 19.4 µM | 83.4% | IC50 [6]: 0.0666 µM |
